This is an account of results in patent US20100249055A1, “CLOFARABINE PHOSPHOLIPID DERIVATIVES” (HEIDELBERG PHARMA AG, priority 2007, published 2010).

Data set [1] in a line: Oral bioavailability and pharmacokinetics in mice (plasma, mass spectroscopy). Particulars: for AUC(0-inf.) (calc.) / AUC(0-t) (obs.) / Cmax (obs.) / Tmax (obs.) / Vd / t½α / t½β: WFI; for Bioavailability F (AUC(0-inf.)): 30 mg/kg po vs iv.
Protocol: Mice received 30 mg/kg of 1 or 6 intravenously or orally. For each time point blood of 3 mice has been collected, plasma prepared and the concentration of 1 or 6 has been determined by mass spectroscopy. […] Bioavailability and the area under the curve (Auc(0-t) [μg h/L]=AUC) have been determined.
The test system of data set [2] is human cervix carcinoma xenograft KB-3-1. Put plainly: Antitumor activity in human cervix carcinoma xenograft model (KB-3-1) in vivo. Also noted: species or system nude mice. The note with it: for Tumor inhibition / Tumor weight: day 30; for Tumor weight: median. The method, then:
Tumor bearing mice were randomized on day 8 after KB-3-1 tumor cell inoculation and were distributed to treatment groups of n=7 animals per group. Treatment was started on day 8. The animals were treated orally once daily for 5 consecutive days with 1 or 6. Dosages included 50 and 25% of the Maximum Tolerable Doses (MTD's). Control animals received the vehicle (water). On day 30, the primary tumors were explanted and the tumor weights were determined.

Where [3] appears, read: mice, 30 mg/kg iv, experiment P06.0069.
Setting [4] is: mice, 30 mg/kg po, experiment P06.0069.
Where [5] appears, read: 25% MTD, 100 mg/kg/day orally once daily for 5 days.
The mark [6] stands for this setting: 50% MTD, 200 mg/kg/day orally once daily for 5 days.
Where [7] appears, read: 25% MTD, 100 mg/kg/day orally once daily for 5 days from day 8.
[8] abbreviates: 50% MTD, 200 mg/kg/day orally once daily for 5 days from day 8.
Where [9] appears, read: mice, 30 mg/kg iv, experiment P06.0068.
The mark [10] stands for this setting: mice, 30 mg/kg po, experiment P06.0068.

On to “[2-Chloro-9-(2′-deoxy-2′-fluoro-β-D-arabinofuranosyl)adenine]-5′-phosphoric acid-(2-decyloxy-3-dodecyloxy)propyl ester [Compound 1]”, for which, in data set [1] (setting [3]), the “AUC(0-inf.) (calc.)” value is 320.025 µg·h/mL, the “AUC(0-t) (obs.)” value was 315.695 µg·h/mL, the “Cmax (obs.)” value was 486156 ng/mL and the “Tmax (obs.)” value worked out at 0.02 h. For the same compound, the “Bioavailability F (AUC(0-inf.))” value in data set [1] (mice, experiment P06.0069) is listed as 28.5%. In data set [1] (setting [4]), the “AUC(0-inf.) (calc.)” value was 91.31 µg·h/mL, the “AUC(0-t) (obs.)” value was 88.927 µg·h/mL, the “Cmax (obs.)” value was found to be 13256 ng/mL and the “Tmax (obs.)” value worked out at 2.0 h.
`CCCCCCCCCCCCSCC(COP(=O)(O)OC[C@H]1O[C@@H](n2cnc3c(N)nc(Cl)nc32)[C@@H](F)[C@@H]1O)OCCCCCCCCCC` (stereo partly shown) [Compound 6] showed a Tumor inhibition in data set [2] (setting [5]) of 31%. In data set [2] (setting [6]), this compound returned a Tumor inhibition of 74%. Besides, the Tumor weight in data set [2] (setting [7]) was determined as 1.91 g. Moreover, the Tumor weight in data set [2] (setting [8]) is listed as 0.73 g. In data set [1] (setting [9]), the “AUC(0-inf.) (calc.)” value was 841.7 µg·h/mL, the “AUC(0-t) (obs.)” value worked out at 823.424 µg·h/mL, the “Cmax (obs.)” value was determined as 673387 ng/mL and the “Tmax (obs.)” value was 0.0 h. In data set [1] (setting [9]), the Vd was determined as 0.26 L/kg, the t½α turned out to be 0.4 h and the t½β was found to be 5.1 h. For the same compound, in data set [1] (mice, 30 mg/kg orally, AUC(0-t)), the AUC after oral application amounted to 213 µg·h/mL. The “Bioavailability F (AUC(0-inf.))” value in data set [1] (mice, experiment P06.0068) is 28.5%. Also, in data set [1] (setting [10]), the “AUC(0-inf.) (calc.)” value was 239.878 µg·h/mL, the “AUC(0-t) (obs.)” value was found to be 236.496 µg·h/mL, the “Cmax (obs.)” value amounted to 19517 ng/mL and the “Tmax (obs.)” value is recorded as 4.0 h. Moreover, in data set [1] (setting [10]), the Vd is 1.30 L/kg, the t½α turned out to be 0.5 h and the t½β worked out at 7.2 h. Further, in data set [1] (setting [4]), the “AUC(0-inf.) (calc.)” value is 225.914 µg·h/mL, the “AUC(0-t) (obs.)” value worked out at 212.685 µg·h/mL, the “Cmax (obs.)” value amounted to 23571 ng/mL and the “Tmax (obs.)” value was found to be 3.0 h. Besides, in data set [1] (setting [4]), the Vd came to 1.10 L/kg, the t½α came out at 0.9 h and the t½β came to 5.7 h.
The AUC is concentration integrated over time. For `CCCCCCCCCCCCOCC(COP(=O)(O)OC[C@H]1O[C@@H](n2cnc3c(N)nc(Cl)nc32)C(F)[C@H]1O)OCCCCCCCCCC` (stereo partly drawn) [Compound 1, [2-Chloro-9-(2′-deoxy-2′-fluoro-β-D-arabinofuranosyl)adenine]-5′-phosphoric acid-(2-decyloxy-3-dodecyloxy)propyl ester], the “Tumor size versus control animals” value in data set [2] (18 days after termination of treatment (day 30)) is “significantly (p<0.01) smaller tumors than control animals”. Besides, the Tumor inhibition in data set [2] (setting [5]) stood at 43%; in data set [2] (setting [6]), 93%. In addition, the Tumor weight was 1.60 g in data set [2] (setting [7]) and 0.19 g in data set [2] (setting [8]). The “Bioavailability F (AUC(0-inf.))” value in data set [1] (mice, experiment P06.0069) is 28.5%. The compound also showed an AUC in data set [1] (mouse, plasma, po, 30 mg/kg) of 88.9 µg·h/mL.
